System: coronary arteries
Experiment: Swine stent model: coated stents implanted in coronary arteries, light microscopy and morphometry
Conditions: for Stenosis (%): (Neointimal Area/IEL Area)x100; for EEL Area / IEL Area / Intimal Area / Intimal Thick. / Lumen Area: PolySAID II coating alone or with 20% added drug by weight
From the text: A total of 8 stents were implanted in the coronary arteries of 3 miniswine for 28 days. The stent implants were Polymerix [nicknamed MARGI] 15 mm in length with an unexpanded diameter of 1.6 mm.
All stents were processed for light microscopic evaluation. Before processing, the vessels and hearts were x-rayed to locate and assess stent placement. For processing, the stented vessel segments were dehydrated in a graded series of ethanol and embedded in methylmethacrylate plastic. After polymerization, two to three millimeter sections were sawed from the proximal, mid and distal portions of each stent. Sections from the stents were cut on a rotary microtome at four to five microns, mounted and stained with hematoxylin and eosin and elastic Van Gieson stains. All sections were examined by light microscopy for the presence of inflammation, thrombus, neointimal formation, vessel wall injury and potential localized toxic effects associated with drug-coated stents.
Myocardial sections were taken from the anterior, lateral, posterior and septal walls of the left ventricle distal to the stent and from the apical region of the left ventricle. To determine localized affects of the polymer and/or drug, the myocardium was also sampled beneath the area of stent placement. All sections were cut at 4-6 microns; mounted and stained with hematoxylin and eosin and examined for the presence of infarct, thromboembolus and inflammation.
A vessel injury score was calculated according to the Schwartz method. The cross-sectional areas (external elastic lamina [EEL], internal elastic lamina [IEL] and lumen) of each section were measured with digital morphometry. Neointimal thickness was measured as the distance from the inner surface of each stent strut to the luminal border. Percent area stenosis was calculated with the formula [(Neointimal Area/IEL Area)×100]. Ordinal data was also collected for fibrin deposition and inflammation and hemorrhage around the stent struts and percent endothelialization of the lumen surfaces. Values are expressed as mean±SD. Mean variables were compared between the groups with the use of ANOVA with Fishers Post Hoc Correction for analysis of the data. A value of P≦0.05 was considered statistically significant.

[1] = miniswine coronary arteries, stents 28 days

| SMILES | light microscopy findings (vessel healing, neointima) (in vivo) | Stenosis (%) [1] [%] | EEL Area [1] [mm2] | IEL Area [1] [mm2] | Intimal Area [1] | Intimal Thick. [1] [mm] | Lumen Area [1] [mm2] | % Struts (Fibrin) (miniswine, in vivo, 28 days) [%] | % Struts Hemorrhage (miniswine, in vivo, 28 days) [%] | % Struts with underlying medial necrosis (miniswine, in vivo, 28 days) [%] | Ave Inflammation score (miniswine, in vivo, 28 days) | Injury Score (miniswine, in vivo, 28 days) | % Struts (Fibrin) [1] [%] | % Struts Hemorrhage [1] [%] | % Struts with underlying medial necrosis [1] [%] | Ave Inflammation score [1] | light microscopy findings (vessel healing, neointima) [1] | Injury Score (miniswine coronary arteries, stents 28 days, Schwartz method) |
| --- | --- | --- | --- | --- | --- | --- | --- | --- | --- | --- | --- | --- | --- | --- | --- | --- | --- | --- |
| CO[C@H]1C[C@@H]2CC[C@@H](C)[C@@](O)(O2)C(=O)C(=O)N2CCCC[C@H]2C(=O)O[C@H]([C@H](C)C[C@@H]2CC[C@@H](O)[C@H](OC)C2)CC(=O)[C@H](C)/C=C(\C)[C@@H](O)[C@@H](OC)C(=O)[C@H](C)C[C@H](C)/C=C/C=C/C=C/1C [Sirolimus, sirolimus] | less neointimal growth and were more healed than those coated with paclitaxel | 20.31 ± 10.1 | 6.07 ± 0.61 | 4.78 ± 0.39 | 0.96 ± .50 mm2 | 0.10 ± 0.05 | 3.81 ± 0.62 | 57.78 ± 43.47 | 28.33 ± 30.14 | 0.68 ± 0.68 | 2.3 ± 0.58 | 0.45 ± 0.69 | – | – | – | – | – | – |
| CC(=O)O[C@H]1C(=O)[C@@]2(C)[C@H]([C@H](OC(=O)c3ccccc3)[C@]3(O)C[C@H](OC(=O)[C@H](O)[C@@H](NC(=O)c4ccccc4)c4ccccc4)C(C)=C1C3(C)C)[C@]1(OC(C)=O)CO[C@@H]1C[C@@H]2O [Paclitaxel, paclitaxel] | – | 27.21 ± 17.11 | 8.41 ± 2.95 | 6.84 ± 2.56 | 2.14 ± 2.10 mm2 | 0.05 ± 0.01 | 4.70 ± 0.64 | – | – | – | – | – | 100 | 100 | 8.67 ± 3.51 | 2.0 | malapposition with underlying medial necrosis with extensive accumulation of fibrin, hemorrhage, and inflammatory cells around the stent struts | 0.35 ± 0.48 |

From US7985415B2, “Medical devices employing novel polymers” (Rutgers, The State University of New Jersey, priority 1997, dated 2011)
